Source: patent publication US11771663B2, “Epinephrine spray formulations” (HIKMA PHARMACEUTICALS USA INC., priority 2015, dated 2023)

Legend:
[1] = Mini-pig pharmacokinetics, single-dose crossover, plasma epinephrine by LC-MS/MS; format: in vivo, Yucatan mini-pigs; conditions: male, Yucatan, 0.3 mg per animal, minipig, single-dose intramuscular (IM), read-out: geometric mean plasma concentration of epinephrine
Experimental: Protocol design was a single-dose crossover study. Five healthy male Yucatan mini-pigs weighing approximately eighty to ninety-five kilograms each were administered epinephrine formulations. The minipigs were fasted overnight till four hours' post administration. Each dosing was followed by a washout period of at least one-week. Blood samples were taken prior to administration and 2, 5, 10, 15, 20, 30, 45 min, 1, 1.5, 2, 4, and 24 hours' post dose. Minipig plasma samples were measured for epinephrine concentrations via liquid chromatography-tandem mass spectrometry.

[2] = Rabbit pharmacokinetics, single-dose non-crossover, plasma epinephrine by LC-MS/MS; format: in vivo, New Zealand white rabbits; conditions: male, New Zealand white, intramuscular, 0.03 mg per animal, single-dose IM
Experimental: Protocol design was a single-dose non-crossover study. Pharmacokinetics of a number of epinephrine formulations were evaluated in healthy male New Zealand white rabbits weighing approximately two to three kilograms. For dosing of each formulation, five or six rabbits were used. The rabbits were fasted overnight till four hours' post administration. Blood samples were taken prior to administration and 5, 10, 15, 20, 30, 40 min, 1, 1.5, 2, 4, and 5 hours' post dose. Rabbit plasma samples were measured for epinephrine concentrations via liquid chromatography-tandem mass spectrometry. Formulation #R9 existed as a spray-dried powder of epinephrine bitartrate salt. For the evaluation of #R9, approximately 21.83 mg of powder was dosed to each animal, as an equivalent dose of 12 mg epinephrine.

concentration at 5 min [1]: 0.046 ng/mL | concentration at 5 min [2]: 0.988 ng/mL
SMILES: CNC[C@H](O)c1ccc(O)c(O)c1 [epinephrine, Epinephrine]
